How the values were obtained:
Format in all cases: in vivo
[1] = system: Centaurea cyanis; test: Field trial, post-emergence, visual scoring; conditions: Table 5-59, field, alone
Procedure: (§1) The tests were conducted outdoors (plot trials, 10 m^2 per plot, 2 repetitions, spray application with 200-300 liters of water per hectare). Crops and broad-leaved weeds/weed grasses were sown under customary field conditions. In addition, a natural weed flora also appeared. Application was by the post-emergence method. The application rates of the herbicidally active compounds applied on their own or in combinations are likewise shown in the tables below. Evaluations were by visual scoring (using a 0-100% scale) after application by comparison of treated and untreated test variants.
(§2) The abbreviations denote: • a.i.=active ingredient • E^C=expected value according to Colby (E^C=A+B−A×B100) • Δ=difference (%) of the measured value to the expected value (%) (measured value minus expected value)
(§3) Evaluation: • measured value E is greater than E^C:→synergism (+Δ) • measured value E equals E^C:→additive effect • measured value E is smaller than E^C:→antagonism (−Δ)

[2] = system: Abutilon theophrasti; test: Field trial, post-emergence, visual scoring; conditions: Table 5-17, field, alone
Procedure: as §1, §2, §3

[3] = system: Cassia obtusifolia; test: Field trial, post-emergence, visual scoring; conditions: alone
Procedure: as §1, §2, §3

[4] = system: Portulaca oleracea; test: Field trial, post-emergence, visual scoring; conditions: alone
Procedure: as §1, §2, §3

[5] = system: Setaria viridis; test: Field trial, post-emergence, visual scoring; conditions: alone
Procedure: as §1, §2, §3

[6] = system: Sida spinosa; test: Field trial, post-emergence, visual scoring; conditions: alone, 10 g of a.i./ha
Procedure: as §1, §2, §3

[7] = system: Avena fatua; test: Greenhouse trial, post-emergence, visual herbicidal effect; conditions: alone
Procedure: (§4) The weed seeds were sown in pots (diameter 8 cm) with sandy loam soil and germinated under optimum conditions. The herbides were applied by the post-emergence method onto the pots with the cultures, at a spray volume of 300 I/ha. The herbicides were applied on their own and in combination. The trial was conducted in a greenhouse under optimum growth conditions. The herbicidal effects were assessed visually by comparison of untreated and treated plants. The percentages mean: 0%=no effects, 100%=the plants die off completely). The percentages are used to calculate interactions between individual treatments and combination treatment according to S. R. Colby, Weeds 15, pages 20 to 22 (1967).
as §2, §3

[8] = system: Centaurea cyanis; test: as above; conditions: alone
Procedure: as §4, §2, §3

[9] = system: Papaver rhoeas; test: as above; conditions: alone
Procedure: as §4, §2, §3

[10] = system: Phalaris minor; test: as above; conditions: Table 5-03, greenhouse, alone, 25 g of a.i./ha
Procedure: as §4, §2, §3

[11] = system: Polygonum convolvulus; test: as above; conditions: alone
Procedure: as §4, §2, §3

[12] = system: Viola tricolor; test: as above; conditions: alone
Procedure: as §4, §2, §3

[13] = system: Alopecurus myosuroides; test: Field trial, post-emergence, visual scoring; conditions: Table 5-60, field, alone
Procedure: as §1, §2, §3

[14] = system: Brachiaria platyphylla; test: Greenhouse trial, post-emergence, visual herbicidal effect; conditions: alone
Procedure: as §4, §2, §3

[15] = system: Xanthium strumarium; test: as above; conditions: Table 5-56, greenhouse, alone, 1 g of a.i./ha
Procedure: as §4, §2, §3

[16] = system: Euphorbia heterophylla; test: Field trial, post-emergence, visual scoring
Procedure: as §1, §2, §3

[17] = system: Galium aparine; test: Field trial, post-emergence, visual scoring; conditions: alone
Procedure: as §1, §2, §3

[18] = system: Lolium multiflorum; test: Field trial, post-emergence, visual scoring; conditions: alone, 25 g of a.i./ha
Procedure: as §1, §2, §3

[19] = system: Amaranthus retroflexus; test: Field trial, post-emergence, visual scoring; conditions: Table 5-48, field, alone
Procedure: as §1, §2, §3

[20] = system: Veronica hederifolia; test: Greenhouse trial, post-emergence, visual herbicidal effect; conditions: Table 5-89, greenhouse, alone
Procedure: as §4, §2, §3

[21] = system: Polygunum convolvulus; test: Field trial, post-emergence, visual scoring; conditions: Table 5-53, field, alone
Procedure: as §1, §2, §3

[22] = system: Veronica hederifolia; test: Field trial, post-emergence, visual scoring; conditions: alone, 210 g of a.i./ha
Procedure: as §1, §2, §3

[23] = system: broad-leaved weeds/weed grasses; test: Field trial, post-emergence, visual scoring (species not listed above); conditions: dosage 210 g of a.i./ha
Procedure: as §1, §2, §3

[24] = system: Ambrosia artemisiifolia; test: Greenhouse trial, post-emergence, visual herbicidal effect; conditions: Table 5-52, greenhouse, alone, 4 g of a.i./ha
Procedure: as §4, §2, §3

[25] = system: Bidens pilosa; test: as above; conditions: alone
Procedure: as §4, §2, §3

## CC(C)N(C(=O)COc1nnc(C(F)(F)F)s1)c1ccc(F)cc1 [flufenacet]
[1]; 240 g of a.i./ha
  Activity [%] against Centaurea cyanis: 0%

## CCCn1nnnc1NC(=O)c1ccc(C(F)(F)F)c(S(C)(=O)=O)c1C [A1-9]
[2]; 20 g of a.i./ha
  Activity [%] against Abutilon theophrasti: 78%
[3]; Table 5-12, field, 20 g of a.i./ha
  Activity [%] against Cassia obtusifolia: 0%
[3]; Table 5-24, field, 20 g of a.i./ha
  Activity [%] against Cassia obtusifolia: 0%
[3]; Table 5-25, field, 25 g of a.i./ha
  Activity [%] against Cassia obtusifolia: 65%
[4]; Table 5-13, field, 20 g of a.i./ha
  Activity [%] against Portulaca oleracea: 43%
[4]; Table 5-14, field, 20 g of a.i./ha
  Activity [%] against Portulaca oleracea: 43%
[4]; Table 5-15, field, 20 g of a.i./ha
  Activity [%] against Portulaca oleracea: 43%
[4]; Table 5-16, field, 20 g of a.i./ha
  Activity [%] against Portulaca oleracea: 43%
[4]; Table 5-18, field, 20 g of a.i./ha
  Activity [%] against Portulaca oleracea: 43%
[4]; Table 5-19, field, 20 g of a.i./ha
  Activity [%] against Portulaca oleracea: 43%
[4]; Table 5-20, field, 20 g of a.i./ha
  Activity [%] against Portulaca oleracea: 43%
[4]; Table 5-22, field, 10 g of a.i./ha
  Activity [%] against Portulaca oleracea: 38%
[5]; Table 5-23, field, 10 g of a.i./ha
  Activity [%] against Setaria viridis: 15%
[5]; Table 5-26, field, 25 g of a.i./ha
  Activity [%] against Setaria viridis: 7%
[6]; Table 5-10, field
  Activity [%] against Sida spinosa: 60%
[6]; Table 5-11, field
  Activity [%] against Sida spinosa: 60%
[6]; Table 5-21, field
  Activity [%] against Sida spinosa: 60%

## CCOC(=O)[C@@H](C)Oc1ccc(Oc2nc3ccc(Cl)cc3o2)cc1 [fenoxaprop-P-ethyl]
[7]; Table 5-01, greenhouse, 25 g of a.i./ha
  Activity [%] against Avena fatua: 0%
[7]; Table 5-05, greenhouse, 12.5 g of a.i./ha
  Activity [%] against Avena fatua: 0%
[7]; Table 5-07, greenhouse, 12.5 g of a.i./ha
  Activity [%] against Avena fatua: 0%
[7]; Table 5-49, greenhouse, 25 g of a.i./ha
  Activity [%] against Avena fatua: 0%
[8]; Table 5-50, greenhouse, 25 g of a.i./ha
  Activity [%] against Centaurea cyanis: 0%
[9]; Table 5-06, greenhouse, 12.5 g of a.i./ha
  Activity [%] against Papaver rhoeas: 20%
[10]
  Activity [%] against Phalaris minor: 15%
[11]; Table 5-08, greenhouse, 25 g of a.i./ha
  Activity [%] against Polygonum convolvulus: 0%
[12]; Table 5-02, greenhouse, 25 g of a.i./ha
  Activity [%] against Viola tricolor: 0%
[12]; Table 5-09, greenhouse, 12.5 g of a.i./ha
  Activity [%] against Viola tricolor: 15%
[13]; 83 g of a.i./ha
  Activity [%] against Alopecurus myosuroides: 30%

## COCc1c(S(C)(=O)=O)ccc(C(=O)Nc2nnnn2C)c1Cl [A1-60]
[14]; Table 5-55, greenhouse, 1 g of a.i./ha
  Activity [%] against Brachiaria platyphylla: 0%
[14]; Table 5-57, greenhouse, 2 g of a.i./ha
  Activity [%] against Brachiaria platyphylla: 40%
[15]
  Activity [%] against Xanthium strumarium: 25%
[13]; 25 g of a.i./ha
  Activity [%] against Alopecurus myosuroides: 15%
[1]; 25 g of a.i./ha
  Activity [%] against Centaurea cyanis: 45%
[16]; Table 5-63, field, alone, 25 g of a.i./ha
  Activity [%] against Euphorbia heterophylla: 30%
[17]; Table 5-61, field, 25 g of a.i./ha
  Activity [%] against Galium aparine: 30%
[17]; Table 5-62, field, 25 g of a.i./ha
  Activity [%] against Galium aparine: 73%
[18]; Table 5-58, field
  Activity [%] against Lolium multiflorum: 15%

## CCNc1nc(Cl)nc(NC(C)C)n1 [atrazine]
[19]; 560 g of a.i./ha
  Activity [%] against Amaranthus retroflexus: 60%
[16]; Field, dosage 1000 g of a.i./ha
  Activity [%] against Euphorbia heterophylla: 55%
[16]; Table 5-51, field, alone, 1000 g of a.i./ha
  Activity [%] against Euphorbia heterophylla: 49%
[16]; Table 5-63, field, alone, 1000 g of a.i./ha
  Activity [%] against Euphorbia heterophylla: 49%
[16]; Table 5-85, field, alone, 1000 g of a.i./ha
  Activity [%] against Euphorbia heterophylla: 49%
[4]; Table 5-13, field, 250 g of a.i./ha
  Activity [%] against Portulaca oleracea: 25%

## Cn1nnnc1NC(=O)c1ccc(S(C)(=O)=O)c(OCC2CC2)c1Cl [A1-74]
[9]; Table 5-86, greenhouse, 3 g of a.i./ha
  Activity [%] against Papaver rhoeas: 30%
[9]; Table 5-87, greenhouse, 3 g of a.i./ha
  Activity [%] against Papaver rhoeas: 40%
[11]; Table 5-88, greenhouse, 3 g of a.i./ha
  Activity [%] against Polygonum convolvulus: 0%
[20]; 3 g of a.i./ha
  Activity [%] against Veronica hederifolia: 40%

## COC[C@H](C)N(C(=O)CCl)c1c(C)csc1C [dimethenamide-P]
[2]; 500 g of a.i./ha
  Activity [%] against Abutilon theophrasti: 25%

## N#Cc1cc(Br)c(O)c(Br)c1 [bromoxynil]
[3]; Table 5-25, field, 210 g of a.i./ha
  Activity [%] against Cassia obtusifolia: 10%
[17]; Table 5-04, field, 210 g of a.i./ha
  Activity [%] against Galium aparine: 13%
[17]; Table 5-62, field, 210 g of a.i./ha
  Activity [%] against Galium aparine: 13%
[17]; Table 5-92, field, 210 g of a.i./ha
  Activity [%] against Galium aparine: 25%
[21]; 210 g of a.i./ha
  Activity [%] against Polygunum convolvulus: 30%
[22]; Table 5-66, field
  Activity [%] against Veronica hederifolia: 5%
[22]; Table 5-74, field
  Activity [%] against Veronica hederifolia: 5%
[22]; Table 5-76, field
  Activity [%] against Veronica hederifolia: 0%
[22]; Table 5-79, field
  Activity [%] against Veronica hederifolia: 5%
[23]; Table 5-114
  Activity [%] against Stellaria media: 10%
[23]; Table 5-116
  Activity [%] against Stellaria media: 5%

## CCc1cc(C)cc(CC)c1-c1c(OC(=O)C(C)(C)C)n2n(c1=O)CCOCC2 [pinoxaden]
[8]; Table 5-38, greenhouse, 5 g of a.i./ha
  Activity [%] against Centaurea cyanis: 0%
[8]; Table 5-40, greenhouse, 5 g of a.i./ha
  Activity [%] against Centaurea cyanis: 15%
[9]; Table 5-39, greenhouse, 5 g of a.i./ha
  Activity [%] against Papaver rhoeas: 0%
[9]; Table 5-41, greenhouse, 10 g of a.i./ha
  Activity [%] against Papaver rhoeas: 10%
[9]; Table 5-86, greenhouse, 10 g of a.i./ha
  Activity [%] against Papaver rhoeas: 0%
[9]; Table 5-87, greenhouse, 10 g of a.i./ha
  Activity [%] against Papaver rhoeas: 50%
[11]; Table 5-88, greenhouse, 10 g of a.i./ha
  Activity [%] against Polygonum convolvulus: 0%
[20]; 10 g of a.i./ha
  Activity [%] against Veronica hederifolia: 20%
[12]; Table 5-42, greenhouse, 10 g of a.i./ha
  Activity [%] against Viola tricolor: 0%

## Cc1ccc(C(=O)Nc2nnnn2C)c(Cl)c1S(C)(=O)=O [A1-49]
[24]
  Activity [%] against Ambrosia artemisiifolia: 80%
[18]; Table 5-54, field
  Activity [%] against Lolium multiflorum: 40%
[21]; 25 g of a.i./ha
  Activity [%] against Polygunum convolvulus: 35%

## CCc1c(C(=O)Nc2nnnn2C)ccc(Cl)c1SC [A1-36]
[25]; Table 5-46, greenhouse, 2 g of a.i./ha
  Activity [%] against Bidens pilosa: 45%
[25]; Table 5-47, greenhouse, 4 g of a.i./ha
  Activity [%] against Bidens pilosa: 30%
[14]; Table 5-45, greenhouse, 2 g of a.i./ha
  Activity [%] against Brachiaria platyphylla: 25%
[19]; 50 g of a.i./ha
  Activity [%] against Amaranthus retroflexus: 0%

— patent US9867376B2, “Herbicidal compositions comprising N-tetrazol-5-yl)- or N-(triazol-5-yl)arylcarboxamides” (priority 2012, dated 2018)
